Measured values published in US20240336594A1, “SIX-MEMBERED ARYL OR HETEROARYL AMIDES, AND COMPOSITION AND USE THEREOF” (BETTA PHARMACEUTICALS CO., LTD, priority 2021, published 2024).

target: T1, MALT1 (Homo sapiens, UniProt Q9UDY8); experiment: MALT1 protease inhibition assay (AMC-labeled peptide, fluorescence 360/460); format: biochemical; settings: substrate Ac-LRSR-AMC, 15 min preincubation, 90 min at 25° C.
T1 sequence (Q9UDY8 1-824): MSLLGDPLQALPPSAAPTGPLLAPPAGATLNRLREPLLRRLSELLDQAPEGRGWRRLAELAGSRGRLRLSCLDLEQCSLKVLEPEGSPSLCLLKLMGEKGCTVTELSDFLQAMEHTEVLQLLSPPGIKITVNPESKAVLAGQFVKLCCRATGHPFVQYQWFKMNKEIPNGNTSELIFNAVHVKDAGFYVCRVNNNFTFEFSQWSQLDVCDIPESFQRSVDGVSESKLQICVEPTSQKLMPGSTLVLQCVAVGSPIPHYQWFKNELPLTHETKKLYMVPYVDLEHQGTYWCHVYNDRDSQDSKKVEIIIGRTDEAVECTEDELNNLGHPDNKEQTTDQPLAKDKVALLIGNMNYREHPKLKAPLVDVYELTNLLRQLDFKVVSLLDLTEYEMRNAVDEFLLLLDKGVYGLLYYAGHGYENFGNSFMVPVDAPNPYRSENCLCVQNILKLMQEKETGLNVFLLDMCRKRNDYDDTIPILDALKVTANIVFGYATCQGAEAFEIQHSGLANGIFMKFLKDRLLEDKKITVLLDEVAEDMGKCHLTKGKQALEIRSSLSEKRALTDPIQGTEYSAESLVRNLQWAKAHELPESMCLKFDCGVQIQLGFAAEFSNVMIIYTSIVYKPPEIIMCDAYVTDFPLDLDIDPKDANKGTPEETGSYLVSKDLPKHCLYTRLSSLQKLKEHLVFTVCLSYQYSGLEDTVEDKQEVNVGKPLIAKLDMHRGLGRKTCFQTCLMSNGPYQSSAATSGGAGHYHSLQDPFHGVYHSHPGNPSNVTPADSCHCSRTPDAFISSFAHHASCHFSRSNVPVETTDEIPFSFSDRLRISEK
Protocol: Test compounds of the present invention (in 100% DMSO) were spotted into a 384-well dilution plate and serially diluted to the required concentrations with DMSO. Then, 0.2 μL of the test compounds were transferred into a new 384-well reaction plate by Echo following centrifugation. The MALT enzyme and its substrate, AMC-labeled peptide, were prepared in 1× protease buffer to yield 2× enzyme solution and 2× peptide solution. Subsequently, 10 μL of 2× enzyme solution was added into the 384-well reaction plate, incubating with the test compounds for 15 minutes at 25° C. After that, 10 μL of 2× peptide solution was added into the plate, continuing to incubate for 90 minutes at 25° C. The plate was then placed on an Envision multifunctional microplate reader to collect raw data, which would be converted into inhibition rate:
Inhibition rate %=(max−sample)/(max−min)*100%. • “max” values were measured using the reaction with enzyme but no compound treated, while “min” values were generated from control wells containing assay buffer without enzyme.
Curve fitting was done with Graphpad Prism software to determine the IC50 values. The specific experimental operations are as follows:
58.82 g Na Citrate·2H2O powder was added into 140 mL ddH2O and mixed in a 37° C. water bath. Once there were no visible particles, the remaining solutions were added successively with continuous stirring for 10 minutes. The final volume was adjusted to 200 mL. The buffer was stored at room temperature. DTT was added before use.
• 1) All test compounds were diluted from 10 mM stock solution into 1 mM in a 384 well dilution plate (labcyte, PP-0200); • 2) Ten various concentrations of the diluted compound solution above were obtained by serial dilution at an equal ratio of 1:3; • 3) 0.2 μL DMSO was transferred to two empty wells of the 384 reaction plate as blank controls without compound and enzyme respectively; • 4) 0.2 μL of the test compound at different concentrations was also transferred into the 384 reaction plate by Echo, with two duplicate wells for each concentration, then the plate was centrifuged at 1000 rpm for 1 min.
• 1) The MALT1 protease and AMC-labeled peptide was prepared in 1× protease buffer to obtain 2× enzyme solution and 2× peptide solution. 10 μL of 2× enzyme solution was added into the 384-well reaction plate. The plate was centrifuged at 1000 rpm for 1 min and incubated for 15 min at 25° C. • 2) 10 μL of 2× peptide solution was then transferred to the 384 reaction plate, and the plate was centrifuged at 1000 rpm for 1 min and incubate for 90 min at 25° C.

IC50 [nM] | SMILES
10 to 100 | COCCNC(=O)c1ncc(NC(=O)c2cc(F)c(-c3ccc(F)cc3N)cc2Cl)cc1Cl [Example A449, 5-(2′-amino-5-chloro-2,4′-difluoro-[1,1′-biphenyl]-4-carboxamido)-3-chloro-N-(2-methoxyethyl)picolinamide]
≤ 10 | C#Cc1cnccc1-c1cc(Cl)c(C(=O)Nc2ccc(OC)c(Cl)c2)cc1F [Example A338, 2-chloro-N-(3-chloro-4-methoxyphenyl)-4-(3-ethynylpyridin-4-y1)-5-fluorobenzamide]
≤ 10 | C#Cc1c(F)ncc(N)c1-c1cc(Cl)c(C(=O)Nc2cnc(-n3nccn3)c(Cl)c2)cc1F [Example A486, 4-(5-amino-3-ethynyl-2-fluoropyridin-4-yl)-2-chloro-N-(5-chloro-6-(2H-1,2,3-triazol-2-yl)pyridin-3-yl)-5-fluorobenzamide]
10 to 100 | CCCCNC(=O)c1ncc(NC(=O)c2cc(F)c(-c3ccc(F)cc3N)cc2Cl)cc1Cl [Example A438, 5-(2′-amino-5-chloro-2,4′-difluoro-[1,1′-biphenyl]-4-carboxamido)-N-butyl-3-chloropicolinamide]
10 to 100 | CCSCCNC(=O)c1ncc(NC(=O)c2cc(F)c(-c3ccc(F)cc3N)cc2Cl)cc1Cl [Example A464, 5-(2′-amino-5-chloro-2,4′-difluoro-[1,1′-biphenyl]-4-carboxamido)-3-chloro-N-(2-(ethylthio)ethyl) picolinamide]
10 to 100 | Nc1cc(F)ccc1-c1cc(Cl)c(C(=O)Nc2cnc(C(=O)NCc3nc[nH]n3)c(Cl)c2)cc1F [Example A463, N-((1H-1,2,4-triazol-3-yl)methyl)-5-(2′-amino-5-chloro-2,4′-difluoro-[1,1′-biphenyl]-4-carboxamido)-3-chloropicolinamide]
10 to 100 | C#Cc1cc(C(=O)Nc2cnc(-n3nccn3)c(Cl)c2)c(C)cc1-c1ccncc1OC [Example A417, N-(5-chloro-6-(2H-1,2,3-triazol-2-yl)pyridin-3-yl)-5-ethynyl-4-(3-methoxypyridin-4-yl)-2-methylbenzamide]
≤ 10 | C#Cc1cncc(N)c1-c1cc(Cl)c(C(=O)Nc2cnc(C(=O)NCC(C)(C)C)c(Cl)c2)cc1F [Example A478, 5-(4-(3-amino-5-ethynylpyridin-4-yl)-2-chloro-5-fluorobenzamido)-3-chloro-N-neopentylpicolinamide]

Continued, compound first:

SMILES | IC50 [nM]
C=Cc1cncc(N)c1-c1cc(Cl)c(C(=O)Nc2cnc(-n3nccn3)c(Cl)c2)cc1F [Example A507, 4-(3-amino-5-vinylpyridin-4-yl)-2-chloro-N-(5-chloro-6-(2H-1,2,3-triazol-2-yl)pyridin-3-yl)-5-fluorobenzamide] | ≤ 10
Nc1cc(F)ccc1-c1cc(Cl)c(C(=O)Nc2cnc(C(=O)NCC3CC(F)(F)C3)c(Cl)c2)cc1F [Example A451, 5-(2′-amino-5-chloro-2,4′-difluoro-[1,1′-biphenyl]-4-carboxamido)-3-chloro-N-((3,3-difluorocyclobutyl)methyl) picolinamide] | 10 to 100
Nc1cc(F)ccc1-c1cc(Cl)c(C(=O)Nc2cnc(C(=O)NCC3(C(F)(F)F)CC3)c(Cl)c2)cc1F [Example A468, 5-(2′-amino-5-chloro-2,4′-difluoro-[1,1′-biphenyl]-4-carboxamido)-3-chloro-N-((1-(trifluoromethyl)cyclopropyl)methyl) picolinamide] | 100 to 500
Nc1cc(F)ccc1-c1cc(Cl)c(C(=O)Nc2cnc(C(=O)NCc3ccoc3)c(Cl)c2)cc1F [Example A447, 5-(2′-amino-5-chloro-2,4′-difluoro-[1,1′-biphenyl]-4-carboxamido)-3-chloro-N-(furan-3-ylmethyl)picolinamide] | 10 to 100
C=Cc1cc(C(=O)Nc2cnc(-n3nccn3)c(Cl)c2)c(C)cc1-c1ccc(F)cc1N [Example A425] | 10 to 100
C#Cc1cc(F)ccc1-c1cc(C)c(C(=O)Nc2cnc(-n3nccn3)c(Cl)c2)cc1-c1ccccc1 [Example A422, N-(5-chloro-6-(2H-1,2,3-triazol-2-yl)pyridin-3-yl)-2-ethynyl-4-fluoro-5′-methyl-[1,1′:2′,1″-terphenyl]-4′-carboxamide] | > 500
